This is an account of results in US9266895B2, “Substituted pyrazolo[3,4-d]pyrimidines as kinase inhibitors” (PRINCIPIA BIOPHARMA INC., priority 2012, dated 2016).

This experiment addresses BTK (Homo sapiens (Human), UniProt Q06187). The experiment can be described thus: Reversibility of binding (compound in solution by HPLC-MS/MS before and after target perturbation). The protocol: The following approach was developed to differentiate compounds that form irreversible covalent bond with their targets, such as non-cyano containing acrylamide compounds, from compound that form reversible covalent bond i.e., compounds and/or pharmaceutically acceptable salts of the present disclosure. […] The reactions were then treated with perturbations including both denaturation with 5 M guanidine hydrochloride and digestion with trypsin, disrupting proper folding of the target. […] The concentration of compound in solution was assessed both preceding and following perturbation using high performance liquid chromatography (HPLC) coupled to tandem mass spectrometry.

Sequence of BTK (Q06187 whole entry): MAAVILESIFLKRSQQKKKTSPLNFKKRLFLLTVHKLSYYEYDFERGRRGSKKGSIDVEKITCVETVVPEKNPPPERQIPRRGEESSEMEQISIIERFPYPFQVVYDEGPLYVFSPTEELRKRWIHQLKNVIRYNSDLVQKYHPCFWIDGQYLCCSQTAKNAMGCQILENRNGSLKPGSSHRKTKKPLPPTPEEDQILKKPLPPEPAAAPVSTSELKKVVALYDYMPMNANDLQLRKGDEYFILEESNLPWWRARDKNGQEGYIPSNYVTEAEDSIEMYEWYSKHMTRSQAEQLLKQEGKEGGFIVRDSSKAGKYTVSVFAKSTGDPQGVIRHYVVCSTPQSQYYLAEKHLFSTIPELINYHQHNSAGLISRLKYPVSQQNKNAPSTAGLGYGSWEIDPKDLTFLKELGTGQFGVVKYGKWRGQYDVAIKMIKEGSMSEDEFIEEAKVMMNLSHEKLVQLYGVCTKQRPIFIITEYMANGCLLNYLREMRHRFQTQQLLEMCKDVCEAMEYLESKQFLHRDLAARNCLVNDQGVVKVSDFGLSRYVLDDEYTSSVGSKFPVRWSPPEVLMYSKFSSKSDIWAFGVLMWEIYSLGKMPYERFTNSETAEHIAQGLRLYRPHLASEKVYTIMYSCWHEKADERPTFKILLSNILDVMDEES

Turning to `CN(C1COC1)C(C)(C)C=C(C#N)C(=O)N1CCC[C@H]1Cn1nc(-c2ccc(Oc3ccccc3)cc2F)c2c(N)ncnc21` [Example 10, 2-[(2S)-2-[[4-amino-3-(2-fluoro-4-phenoxy-phenyl)pyrazolo[3,4-d]pyrimidin-1-yl]methyl]pyrrolidine-1-carbonyl]-4-methyl-4-[methyl(oxetan-3-yl)amino]pent-2-enenitrile], the “Compound in solution in the denatured or digested state?” value (after 5 M guanidine hydrochloride denaturation or trypsin digestion) was “yes”. Besides, the “Compound in solution in the native state?” value (target in excess, native state) was “no”.
